Source: BindingDB's records for patent US11787766 (Shanghai Ennovabio Pharmaceuticals, 2023)

What follows are molecules tested against Programmed cell death 1 ligand/protein 1 (Homo sapiens, UniProt Q9NZQ7) (assay: Homogeneous Time-Resolved Fluorescence (HTRF)).
Description: PD1/PD-L1 binding assay kit (Cisbio, Cat #63ADK000CPDEC) was used, which includes two proteins, Tag 1-PD-L1 and Tag 2-PD-1, and two antibodies, Anti-Tag1-Eu3+ and Anti-Tag2-XL 665. Assay principle: Anti-tag1-Eu3+ is the HTRF donor, and Anti-Tag2-XL 665 is the HTRF acceptor. When Tag 1-PD-L1 and Tag 2-PD-1 interact, the added HTRF donor and the acceptor are close to each other. After the donor receives the excitation energy, it transfers part of the energy to the acceptor, thus producing 665 nm emission signal. When the compound is added to block the PD1/PD-L1 interaction, only 620 nm emission light was detected. The inhibitory effect of the compound was determined by analyzing the ratio of 665 nm/620 nm. Tag 1-PD-L1 was diluted with Diluent buffer (cat #62DLBDDF) to a working concentration of 10 nM, Tag 2-PD-1 was diluted with Diluent buffer to a working concentration of 500 nM, and Anti-Tag1-Eu3+ was diluted with detection buffer (cat #62DB1FDG) by 1:100, Anti-Tag2-XL 665 was diluted with detection buffer by 1:20, and the test compound was diluted with Diluent buffer to a final concentration of 2×. In a 384-well plate, 2 μL of compound was added to each well, and then 4 μL of Tag 1-PD-L1, 4 μL of Tag 2-PD-1 were added and incubated at room temperature for 15 minutes.

Chain of Programmed cell death 1 ligand/protein 1 (Q9NZQ7 whole entry): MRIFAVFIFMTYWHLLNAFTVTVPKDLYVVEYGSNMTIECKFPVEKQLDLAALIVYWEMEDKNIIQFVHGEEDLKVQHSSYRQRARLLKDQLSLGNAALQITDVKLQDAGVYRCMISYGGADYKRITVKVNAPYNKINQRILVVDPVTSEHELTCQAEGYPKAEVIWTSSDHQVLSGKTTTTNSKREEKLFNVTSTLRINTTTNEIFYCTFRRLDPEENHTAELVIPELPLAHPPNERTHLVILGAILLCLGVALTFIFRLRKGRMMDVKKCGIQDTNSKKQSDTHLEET
Chain of Programmed cell death 1 ligand/protein 1 (Q15116 whole entry, further chain): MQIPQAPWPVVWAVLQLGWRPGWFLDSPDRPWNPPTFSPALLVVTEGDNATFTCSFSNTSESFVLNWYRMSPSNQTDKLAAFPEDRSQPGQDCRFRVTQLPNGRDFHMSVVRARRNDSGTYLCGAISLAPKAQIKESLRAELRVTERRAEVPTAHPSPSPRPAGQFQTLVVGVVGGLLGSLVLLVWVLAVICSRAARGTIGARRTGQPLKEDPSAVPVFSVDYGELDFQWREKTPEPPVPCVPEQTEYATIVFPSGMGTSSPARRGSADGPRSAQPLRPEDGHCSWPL

Structure (SMILES)	IC50 [nM]
COc1nc(OCc2cccc(-c3cccc(CO)c3C)c2C)ccc1CNCCNC(C)=O [US11787766, Compound 2]	> 1000
COc1nc(OCc2cccc(-c3cccc(COc4ccc(CN5C[C@H](O)C[C@H]5CO)c(OC)n4)c3Cl)c2Cl)ccc1CN1C[C@H](O)C[C@H]1CO [US11787766, Compound 69]	< 10
COc1nc(OCc2cccc(-c3cccc(COc4ccc(C#N)c(OC)n4)c3C)c2C)ccc1C#N [US11787766, Compound 5]	> 1000
COc1nc(OCc2cccc(-c3cccc(CN)c3C)c2)ccc1CN [US11787766, Compound 16]	> 1000
COc1cc(OCc2cccc(-c3cccc(CO)c3C)c2C)cc(OC)c1CN [US11787766, Compound 11]	> 1000
COc1nc(OCc2cccc(-c3cccc(COc4ccc(CNCCNC(C)=O)c(OC)n4)c3Cl)c2C)ccc1CNCCNC(C)=O [US11787766, Compound 30]	< 10
COc1nc(OCc2cccc(-c3cccc(CO)c3C)c2C)ccc1CN [US11787766, Compound 3]	> 1000
COc1nc(OCc2cccc(-c3cccc(COc4ccc(CNCCNC(C)=O)c(OC)n4)c3C)c2C)ccc1C#N [US11787766, Compound 17]	> 1000
